Results: patent US10189856B2 (Adverio Pharma GMBH, priority 2010, dated 2019)
“Also recorded” adds a separate entry of the source.

Columns and labels:
conscious mice = test: Haemodynamic effects in conscious mice with telemetric implants (Example D); type: in vivo; conditions: result in words, dosages with antifibrotic properties
Experimental: The haemodynamic effects of i.e. example, the compound of formula 3, the compound of formula 4, the compound of formula 6 were analyzed in conscious mice. Telemetric implants (DSI®) were used. Signals were received with RMC1-DSI® receiver plates, compiled and analyzed with PONEMAH® physiology platform software.
The mice received either placebo (tylose), 0.3 mg/kg the compound of formula 27, 1 mg/kg the compound of formula 27, 3 mg/kg the compound of formula 27 (FIG. 1), 1.0 mg/kg the compound of formula 3, 3.0 mg/kg the compound of formula 3, 10.0 mg/kg the compound of formula 3 (FIG. 2A,2B), 1.0 mg/kg the compound of formula 4, 3.0 mg/kg the compound of formula 4, 10.0 mg/kg the compound of formula 4 (FIG. 3A/3B), 0.3 mg/kg the compound of formula 6, 1.0 mg/kg the compound of formula 6, 3.0 mg/kg, 10.0 mg/kg the compound of formula 6 (FIG. 4A/4B). The blood pressure and heart rate was monitored before and after application of placebo or the compounds.

[1] = test system: Bleomycin-induced skin fibrosis; test: Bleomycin-induced skin fibrosis, preventive dose-regimen (Example A); type: in vivo, mice; conditions: for Collagen content / Myofibroblast count / Dermal thickness: Table 2; for Collagen content: bleomycin + vehicle 1.56; for Myofibroblast count: bleomycin + vehicle 3.86; for Dermal thickness: vs vehicle-treated control, bleomycin + vehicle 1.71; for dermal thickness, hydroxyproline content of the skin and the number of dermal myofibroblasts: result in words, bleomycin-induced SSc in mice, preventive dose-regimen
Experimental: Local skin fibrosis was induced in 6-week-old, pathogen-free, female DBA/2 mice (Charles River, Sulzfeld, Germany) by repeated (every other day) subcutaneous injections of bleomycin (0.5 mg/ml in saline) in a defined area of the upper back. Control mice were injected in the same manner with saline only and served as reference. For all groups the injection volume was 100 μl. Concomitant to bleomycin treatment, the mice were treated orally with test drug or vehicle. Mice were treated a) with vehicle b) with 1 mg/kg compound of formula 27, and c) with 3 mg/kg compound of formula 27, twice a day via gavage for 21 days. After this 3 weeks treatment period, the animals were sacrificed and skin samples were obtained for analysis.
The injected skin areas were fixed in 4% formalin and embedded in paraffin. Histological sections were stained with hematoxylin and eosin for the determination of dermal thickness. The dermal thickness was determined by measuring the largest distance between the epidermal-dermal junction and the dermal-subcutaneous fat junction. The measurements were performed by an examiner blinded to the treatment of the mice.
To analyze the collagen content in skin samples, hydroxyproline assay was performed. After digestion of punch biopsies (Ø 3 mm) in 6M HCl for three hours at 120° C., chloramine T (0.06 M) was added and samples were mixed and incubated for 20 min at room temperature. 3.15 M perchloric acid and 20% p-dimethylaminobenzaldehyde were added and samples were incubated for additional 20 min at 60° C. The absorbance was determined at 557 nm.
The expression of α-smooth muscle actin (αSMA) was analyzed in paraffin embedded sections. After deparaffinization, samples were incubated with 3% bovine serum albumin followed by incubation with 3% H2O2. αSMA positive cells in mouse sections were detected by incubation with monoclonal anti-αSMA antibodies (clone 1A4, Sigma-Aldrich, Steinheim, Germany). Irrelevant isotype antibodies in the same concentration were used for control (Santa Cruz Biotechnology, Santa Cruz, Calif., USA). Antibodies labeled with horseradish peroxidase (Dako, Hamburg, Germany) were used as secondary antibodies. The expression of the NICD and αSMA was visualized with DAB peroxidase substrate solution (Sigma-Aldrich). The number of myofibroblasts was counted from 4 different sections of lesional skin for each mouse by an examiner blinded to the treatment of the mice.

[2] = test system: Bleomycin-induced skin fibrosis; test: as above; type: in vivo, mice; conditions: Table 2, 0.3 mg/kg
Tsk-1 mice = test: Tight skin (Tsk-1) mouse model of systemic sclerosis (Example C); type: in vivo; conditions: result in words; TSK mice with established fibrosis before start of treatment
Experimental: In addition to the mouse model of bleomycin-induced dermal fibrosis, the tight-skin (Tsk-1) mouse model of systemic sclerosis was used to evaluate the anti-fibrotic potential of test drugs. Due to a dominant mutation in fibrillin-1, the phenotype of Tsk-1 is characterized by an increased hypodermal thickness. Genotyping of Tsk-1 mice was performed by PCR with the following primers: mutated fibrillin-1/Tsk-1 forward primer: 5′-[…]-3′, reverse primer: 5′-[…]-3′. Tsk-1 mice were treated daily with test drug or vehicle, respectively, by oral gavage. In addition, a group of corresponding wild type(pa/pa) mice was treated with vehicle. The treatment was started at an age of five weeks. After five weeks of treatment, mice were sacrificed by cervical dislocation and skin samples were obtained for analysis.
(§1) Histological analysis, hydroxyproline assay and immunohistochemistry for α-smooth muscle actin were performed as described in the Example 1 section.

human dermal fibroblasts = test: TGFbeta-induced collagen gene expression and hydroxyproline deposition in human dermal fibroblasts (Example E); type: cell-based; conditions: result in words; human dermal fibroblasts in vitro
Experimental: The effects of the compound of formula 27 and vardenafil as stand alone and in combination were analyzed in vitro in human dermal fibroblasts in vitro.

[3] = test system: established Bleomycin-induced skin fibrosis; test: Established bleomycin-induced skin fibrosis, therapeutic dose-regimen (Example B); type: in vivo; conditions: result in words; bleomycin-induced SSc in mice, therapeutic dose-regimen after established fibrosis
Experimental: Local skin fibrosis was induced in 6-week-old, pathogen-free, female DBA/2 mice (Charles River, Sulzfeld, Germany) by repeated (every other day) subcutaneous injections of bleomycin (0.5 mg/ml in saline) in a defined area of the upper back. Control mice were injected in the same manner with saline only. For all groups the injection volume was 100 μl. The study comprises 4 arms with • a) mice receiving saline injection for 6 weeks (serving as reference) • b) mice receiving Bleomycin injection for 6 weeks • c) mice receiving Bleomycin injection for 6 weeks and additional treatment with the compound of formula 27 (3 mg/kg) twice a day via gavage for the last 3 weeks • d) mice receiving the first 3 weeks bleomycin injections and the second 3 weeks saline injection.
After 6 weeks the animals were sacrificed and skin samples were obtained for analysis.
as §1

Row | Compound | haemodynamic profile (blood pressure and heart rate) (conscious mice) | Collagen content ([1]; 1 mg/kg) | Myofibroblast count ([1]; 1 mg/kg) | Dermal thickness ([1]; 1 mg/kg) | dermal thickness, hydroxyproline content of the skin and the number of dermal myofibroblasts [1] | also measured
1 | COC(=O)N(C)c1c(N)nc(-c2nn(Cc3ccccc3F)c3ncc(F)cc23)nc1N | did not or only moderately, change | – | – | – | – | –
2 | COC(=O)N(C)c1c(N)nc(-c2nn(Cc3ccccc3F)c3ncccc23)nc1N [compound of formula 3, Methyl-4,6-diamino-2-[1-(2-fluorobenzyl)-1H-pyrazolo[3,4-b]pyridine-3-yl]-5-pyrimidinyl-(methyl)carbamate] | did not or only moderately, change | 1.38 x-fold change | 2.55 x-fold change | 1.38 x-fold change | significantly reduced; also recorded: dose dependent and significant effects | –
3 | COC(=O)Nc1c(N)nc(-c2nn(Cc3ccccc3F)c3ncccc23)nc1N [compound of formula 4, Methyl-4,6-diamino-2-[1-(2-fluorobenzyl)-1H-pyrazolo[3,4-b]pyridine-3-yl]-5-pyrimidinyl-carbamate] | did not or only moderately, change | – | – | – | – | –
4 | COC(=O)Nc1c(N)nc(-c2nn(Cc3ccccc3F)c3ncc(F)cc23)nc1N [compound of formula 6, Methyl-{4,6-diamino-2-[5-fluoro-1-(2-fluorobenzyl)-1H-pyrazolo[3,4-b]pyridine-3-yl]pyrimidine-5-yl}carbamate] | – | 1.28 x-fold change | 2.05 x-fold change | 1.24 x-fold change | significantly reduced; also recorded: dose dependent and significant effects | Collagen content ([2]; bleomycin + vehicle 1.56): 1.41 x-fold change; Myofibroblast count ([2]; bleomycin + vehicle 3.86): 3.13 x-fold change; Dermal thickness ([2]; vs vehicle-treated control, bleomycin + vehicle 1.71): 1.41 x-fold change; Collagen content ([1]; 3 mg/kg): 1.20 x-fold change; Myofibroblast count ([1]; 3 mg/kg): 1.49 x-fold change; Dermal thickness ([1]; 3 mg/kg): 1.19 x-fold change
5 | Nc1nc(-c2nn(Cc3ccccc3F)c3ncccc23)ncc1C1CC1 [compound of formula 27, 3-(4-Amino-5-cyclopropylpyrimidin-2-yl)-1-(2-fluorobenzyl)-1H-pyrazolo[3,4-b]pyridine] | did not or only moderately, change | – | – | – | significantly reduced | dermal thickness, hydroxyproline content of the skin and the number of dermal myofibroblasts (Tsk-1 mice): significantly reduced; TGFbeta-induced Collagen gene expression (human dermal fibroblasts): significantly blocked; TGFbeta-induced Hydroxyproline (HP) deposition (human dermal fibroblasts): significantly blocked; dermal thickness, hydroxyproline content of the skin and the number of dermal myofibroblasts [3]: significantly reduced
